Series [1] in a line: UV-Vis analysis of NO2-CLA generation by decomposition of NO2—NO3—CLA at different pH (312 nm). Format: physicochemical. Conditions: 312 nm (FIG. 1). The protocol:
Synthetic NO2—NO3—CLA standards were generated by performing independent reactions of 0.5 mg conjugated-9,11-linoleic acid (CLA, cat. no. UC-60A, Nu-Check Prep Inc., Elysian, Minn.) with 2 mM sodium nitrite (NaNO2) in 1 ml artificial gastric fluid for 1 h at 37° C., under continuous agitation. The lipid fraction was extracted by hexane, 50 μl were dried under a stream of nitrogen gas, dissolved in 300 μl methanol and decomposition of the NO2—NO3—CLA with generation of NO2-CLA was measured spectrophotometrically at 312 nm (FIG. 1). The addition of 10 μl acetic acid to the methanolic solution confirmed the stability of NO2—NO3—CLA at acidic pH (FIG. 1, diamond curve).

Series [2] in a line: N-nitrosation of 2,3-diaminonaphtalene (DAN) to 2,3-naphthotriazole (NAT), followed by HPLC-MS/MS. In kind it is physicochemical. The settings on record: for formation of NAT: 20 μM DAN. How it is done:
To investigate if the degradation of NO2—NO3-CLA induced generation of nitrosative species, N-nitrosation of 2,3-diaminonaphtalene (DAN) to yield 2,3-naphthotriazole (NAT) was performed. Briefly, 25 μl synthetic NO2—NO3-CLA standards were dried under a stream of nitrogen gas, and resuspended in 1 ml of solvents at different polarity with 20 μM DAN. Then, formation of NAT was followed over 60 min by HPLC-MS/MS (FIG. 4).
Analysis of NAT was performed by HPLC-MS/MS using an analytical C18 Luna column (2×20 mm, 5 μm, Phenomenex) at a 0.75 ml/min flow rate, with a gradient solvent system consisting of water containing 0.1% acetic acid (solvent A) and acetonitrile containing 0.1% acetic acid (solvent B). Samples were chromatographically resolved using the following gradient program: 10-100% solvent B (0-3.3 min); 100% solvent B (3.3-4.2 min) followed by 0.8 min re-equilibration to initial conditions. An API4000 Q-trap triple quadrupole mass spectrometer (Applied Biosystems, San Jose, Calif.), equipped with an electrospray ionization source (ESI) in positive mode, was used with the following parameters: declustering potential, 70 V; entrance potential 5; collision cell exit potential 10; collision energy 35; and a desolvation temperature of 650° C. NAT was analyzed using the MRM transition 170.1/115.1.

Take `CCCCCCC(/C=C/C(CCCCCCCC(=O)O)[N+](=O)[O-])O[N+](=O)[O-]` (centres unmarked) [NO2—NO3-CLA, (E)-9-nitro-12-(nitrooxy)octadec-10-enoic acid]: the “degradation of NO2—NO3—CLA with generation of NO2-CLA” value in series [1] (methanolic solution + 10 μl phosphate buffer 50 mM pH 7.4 or 10 μl ammonium hydroxide) was “pH-dependent”. The “rate of NO2-CLA generation on pH increase from pH 7.4 to more basic pH” value in series [1] (phosphate buffer pH 7.4 versus ammonium hydroxide) is on record as “faster generation of NO2-CLA”. Besides, the “formation of NAT” value is listed as “none formation of NAT was observed” in series [2] (dissolved in methanol, over 60 min (FIG. 4, square curve)) and “time dependent generation of NAT” in series [2] (phosphate buffer 50 mM, pH 7.4 with 100 μM DTPA, over 60 min (FIG. 4, circle curve)). Further, the “stability of NO2—NO3-CLA in basic pH” value in series [2] (phosphate buffer 50 mM, pH 7.4 with 100 μM DTPA) is listed as “instability”.

The record behind these values is patent US11491128B2, “Reversible nitroxide derivatives of nitroalkenes that mediate nitrosating and alkylating reactions” (University of Pittsburgh—Of the Commonwealth System of …, priority 2016, dated 2022).
